The values below come from US9409952B2, “Peptide-compound cyclization method” (Chugai Seiyaku Kabushiki Kaisha, priority 2011, dated 2016).

Read-outs that look alike come from different tables or passages of the source. Positions of bridges follow the written chain, without caps; N, C: chain ends. Non-standard residues stand in square brackets, D forms with d. Residues, ends and D or L forms follow the SMILES beside them. *: point of attachment. NMeF = CN[C@@H](Cc1ccccc1)C(=O)O; NMeI = CC[C@H](C)[C@H](NC)C(=O)O; NMeL = CN[C@@H](CC(C)C)C(=O)O; NMeV = CN[C@H](C(=O)O)C(C)C; NMeA = CN[C@@H](C)C(=O)O; Piperidide = C1CCN(*)CC1; Sar = CNCC(=O)O; tBu = CC(C)(C)*

This series can be described thus: Metabolic stability in human hepatic microsome. The conditions noted are these: for microsomal CLint at 1 uM: human. The series is classed as in vitro ADME.
Where [1] appears, read: microsomes, pH 7.4, Hepatic microsome CLhint (Human) In the presence of NADPH.
Setting [2] is: microsomes, pH 7.4, CL NADPH(+).

For orientation: microsomal CLint means a measure of how fast metabolising enzymes remove a compound, apart from limits set by blood flow.

For the compound `CC(C)C[C@H]1C(=O)N[C@@H](COC(C)(C)C)C(=O)N[C@H](C(=O)N2CCCCC2)CC(=O)N[C@@H](C)C(=O)N(C)[C@@H](C)C(=O)N(C)[C@@H](Cc2ccccc2)C(=O)N(C)[C@@H](CC(C)C)C(=O)N[C@@H]([C@@H](C)O)C(=O)N(C)CC(=O)N1C` [Compound P-119, Ala-MeAla-MePhe-MeLeu-Thr-MeGly-MeLeu-Ser(tBu)-Asp-piperidine] (A[NMeA][NMeF][NMeL]T[Sar][NMeL]S(tBu)D-Piperidide; lactam N-9), the “Hepatic microsome CLhint (Human) In the absence of NADPH” value turned out to be 5 ul/min/mg Protein. In addition, under setting [1], the microsomal CLint at 1 uM worked out at 56 µL/min/mg.

In the case of `CC(C)C[C@H]1C(=O)N[C@@H](COC(C)(C)C)C(=O)N[C@H](C(=O)N2CCCCC2)CC(=O)N(C)[C@@H](C)C(=O)N(C)[C@@H](C)C(=O)N(C)[C@@H](Cc2ccccc2)C(=O)N(C)[C@@H](CC(C)C)C(=O)N[C@@H]([C@@H](C)O)C(=O)N(C)CC(=O)N1C` [Compound P-120, MeAla-MeAla-MePhe-MeLeu-Thr-MeGly-MeLeu-Ser(tBu)-Asp-piperidine] ([NMeA][NMeA][NMeF][NMeL]T[Sar][NMeL]S(tBu)D-Piperidide; lactam N-9), the “Hepatic microsome CLhint (Human) In the absence of NADPH” value turned out to be 5 ul/min/mg Protein. As to `CC(C)C[C@H]1C(=O)N[C@@H](COC(C)(C)C)C(=O)N[C@H](C(=O)N2CCCCC2)CCC(=O)N[C@@H](C)C(=O)N(C)[C@@H](C)C(=O)N(C)[C@@H](Cc2ccccc2)C(=O)N(C)[C@@H](CC(C)C)C(=O)N[C@@H]([C@@H](C)O)C(=O)N(C)CC(=O)N1C` [Compound P-121, Ala-MeAla-MePhe-MeLeu-Thr-MeGly-MeLeu-Ser(tBu)-Glu-piperidine] (A[NMeA][NMeF][NMeL]T[Sar][NMeL]S(tBu)E-Piperidide; lactam N-9), the “Hepatic microsome CLhint (Human) In the absence of NADPH” value worked out at 8 ul/min/mg Protein and the “Hepatic microsome CLhint (Human) In the presence of NADPH” value turned out to be 69 ul/min/mg Protein. For the setting “liver microsomes, pH 7.4, Hepatic microsome CLhint (Human) In the presence of NADPH”, the intrinsic metabolic clearance (microsomal CLint) at 1 uM came out at 29 µL/min/mg. With `CC(C)C[C@H]1C(=O)N[C@@H](COC(C)(C)C)C(=O)N[C@H](C(=O)N2CCCCC2)CCC(=O)N(C)[C@@H](C)C(=O)N(C)[C@@H](C)C(=O)N(C)[C@@H](Cc2ccccc2)C(=O)N(C)[C@@H](CC(C)C)C(=O)N[C@@H]([C@@H](C)O)C(=O)N(C)CC(=O)N1C` [Compound P-122, MeAla-MeAla-MePhe-MeLeu-Thr-MeGly-MeLeu-Ser(tBu)-Glu-piperidine] ([NMeA][NMeA][NMeF][NMeL]T[Sar][NMeL]S(tBu)E-Piperidide; lactam N-9), the “Hepatic microsome CLhint (Human) In the absence of NADPH” value was 1 ul/min/mg Protein. Moreover, the microsomal CLint at 1 uM under setting [1] stood at 11 µL/min/mg.

For the compound `CC[C@H](C)[C@H]1C(=O)N[C@H](C(=O)N2CCCCC2)CC(=O)N[C@@H](C)C(=O)N(C)[C@@H](Cc2ccccc2)C(=O)N(C)[C@@H](CC(C)C)C(=O)N[C@@H]([C@@H](C)O)C(=O)N(C)CC(=O)N(C)[C@@H](CC(C)C)C(=O)N[C@@H](COC(C)(C)C)C(=O)N1C` [Compound P-123, Ala-MePhe-MeLeu-Thr-MeGly-MeLeu-Ser(tBu)-MeIle-Asp-piperidine] (A[NMeF][NMeL]T[Sar][NMeL]S(tBu)[NMeI]D-Piperidide; lactam N-9), the “Hepatic microsome CLhint (Human) In the absence of NADPH” value was 0 ul/min/mg Protein. For the same compound, the microsomal CLint at 1 uM under setting [1] turned out to be 106 µL/min/mg. Take `CC[C@H](C)[C@H]1C(=O)N[C@H](C(=O)N2CCCCC2)CC(=O)N[C@@H](C)C(=O)N(C)[C@@H](C)C(=O)N(C)[C@@H](Cc2ccccc2)C(=O)N(C)[C@@H](CC(C)C)C(=O)N[C@@H]([C@@H](C)O)C(=O)N(C)CC(=O)N(C)[C@@H](CC(C)C)C(=O)N[C@@H](COC(C)(C)C)C(=O)N1C` [Compound P-125, Ala-MeAla-MePhe-MeLeu-Thr-MeGly-MeLeu-Ser(tBu)-MeIle-Asp-piperidine] (A[NMeA][NMeF][NMeL]T[Sar][NMeL]S(tBu)[NMeI]D-Piperidide; lactam N-10): the “Hepatic microsome CLhint (Human) In the absence of NADPH” value was 1 ul/min/mg Protein. Where the note is “Table 10, with NADPH”, the “Hepatic microsome CLhint (Human) In the presence of NADPH” value amounted to 35 ul/min/mg Protein. `CC[C@H](C)[C@H]1C(=O)N[C@@H](Cc2ccccc2)C(=O)N(C)[C@@H](Cc2ccccc2)C(=O)N[C@@H]([C@@H](C)O)C(=O)N2CCC[C@H]2C(=O)N[C@@H](CC(C)C)C(=O)N[C@H](C(=O)N2CCCCC2)CC(=O)N[C@@H](C)C(=O)N[C@@H](C(C)C)C(=O)N(C)CC(=O)N[C@@H](CC(C)C)C(=O)N(C)[C@@H](CC(C)C)C(=O)N[C@@H](C)C(=O)N1C` [DP-1] (AV[Sar]L[NMeL]A[NMeI]F[NMeF]TPLD-Piperidide; lactam N-13): the microsomal CLint at 1 uM under setting [2] is 27 µL/min/mg.

In the case of `CC[C@H](C)[C@H]1C(=O)N[C@@H](C)C(=O)N(C)[C@@H](Cc2ccccc2)C(=O)N(C)[C@@H](Cc2ccccc2)C(=O)N[C@@H]([C@@H](C)O)C(=O)N(C)[C@@H](CC(C)C)C(=O)N2CCC[C@H]2C(=O)N[C@H](C(=O)N2CCCCC2)CC(=O)N[C@@H](C)C(=O)N[C@@H](C(C)C)C(=O)N(C)[C@@H](CC(C)C)C(=O)N(C)CC(=O)N(C)[C@@H](CC(C)C)C(=O)N1C` [DP-2] (AV[NMeL][Sar][NMeL][NMeI]A[NMeF][NMeF]T[NMeL]PD-Piperidide; lactam N-13), the microsomal CLint at 1 uM under setting [2] is 7 µL/min/mg. The same measure, in the same setting: as for `CC[C@H](C)[C@H]1C(=O)N[C@@H](C)C(=O)N[C@H](C(=O)N2CCCCC2)CC(=O)N[C@@H](C)C(=O)N[C@@H]([C@@H](C)O)C(=O)N(C)[C@@H](CC(C)C)C(=O)N[C@@H](CC(C)C)C(=O)N[C@@H](Cc2ccccc2)C(=O)N2CCC[C@H]2C(=O)N[C@@H](Cc2ccccc2)C(=O)N[C@@H](C(C)C)C(=O)N(C)CC(=O)N1C` [DP-6] (AT[NMeL]LFPFV[Sar][NMeI]AD-Piperidide; lactam N-12), the figure is 35 µL/min/mg; as for `CC[C@H](C)[C@H]1C(=O)N(C)[C@@H](CC(C)C)C(=O)NCC(=O)N(C)[C@@H](C)C(=O)N[C@@H](Cc2ccccc2)C(=O)N[C@@H]([C@@H](C)O)C(=O)N(C)[C@@H](CC(C)C)C(=O)N[C@@H](Cc2ccccc2)C(=O)N(C)[C@@H](C(C)C)C(=O)N[C@H](C(=O)N2CCCCC2)CC(=O)N[C@@H](C)C(=O)N[C@@H](CC(C)C)C(=O)N1C` [DP-8] (AL[NMeI][NMeL]G[NMeA]FT[NMeL]F[NMeV]D-Piperidide; lactam N-12), 36 µL/min/mg; as for `CC[C@H](C)[C@@H]1NC(=O)[C@H](C)NC(=O)C[C@@H](C(=O)N2CCCCC2)NC(=O)[C@H](CC(C)C)N(C)C(=O)[C@H](CC(C)C)N(C)C(=O)[C@H](C(C)C)NC(=O)[C@H](C)NC(=O)[C@H](Cc2ccccc2)N(C)C(=O)[C@H](Cc2ccccc2)N(C)C(=O)[C@H]([C@@H](C)O)NC(=O)[C@H](CC(C)C)N(C)C(=O)[C@@H]2CCCN2C1=O` [DP-10] (AIP[NMeL]T[NMeF][NMeF]AV[NMeL][NMeL]D-Piperidide; lactam N-12), 14 µL/min/mg. The same measure, in the same setting: as for `CC[C@H](C)[C@H]1C(=O)N(C)[C@@H](C)C(=O)N[C@H](C(=O)N2CCCCC2)CC(=O)N[C@@H](C)C(=O)N[C@@H]([C@@H](C)O)C(=O)N(C)[C@@H](Cc2ccccc2)C(=O)N(C)[C@@H](CC(C)C)C(=O)N[C@@H](C(C)C)C(=O)N2CCC[C@H]2C(=O)N(C)[C@@H](Cc2ccccc2)C(=O)N[C@@H](CC(C)C)C(=O)N(C)CC(=O)N1C` [DP-11] (AT[NMeF][NMeL]VP[NMeF]L[Sar][NMeI][NMeA]D-Piperidide; lactam N-12), the figure is 67 µL/min/mg.
